According to patent US5955440A, “Macrolide LHRH antagonists” (Abbott Laboratories, priority 1998, dated 1999):

Target: T1, LHRH rat pituitary receptor (Rattus norvegicus, UniProt P30969)
T1 construct: from tissue; host or cells: rat pituitary
T1 sequence (P30969 1-327): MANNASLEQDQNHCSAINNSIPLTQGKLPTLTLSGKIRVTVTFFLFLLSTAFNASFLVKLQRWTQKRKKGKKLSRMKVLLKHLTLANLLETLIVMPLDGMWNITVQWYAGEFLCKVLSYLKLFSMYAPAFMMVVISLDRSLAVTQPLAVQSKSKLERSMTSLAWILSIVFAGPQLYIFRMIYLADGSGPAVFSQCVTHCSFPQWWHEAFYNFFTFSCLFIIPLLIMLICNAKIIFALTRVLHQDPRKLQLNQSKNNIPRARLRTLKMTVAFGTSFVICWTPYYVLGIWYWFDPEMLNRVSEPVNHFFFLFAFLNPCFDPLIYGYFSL
Experiment: LHRH rat pituitary receptor binding (pKI)
Conditions: negative logarithm of the equilibrium dissociation constants, Table 1, read-out: receptor binding affinity (pKI) (converted)
Protocol: Representative compounds of the present invention were evaluated in in vitro tests for LHRH rat pituitary receptor binding (pKI) and for LH inhibition from rat pituitary cells for antagonist potency (pA2). The tests employed the methods detailed in F. Haviv, et al. J. Med. Chem., 32: 2340-2344 (1989). The receptor binding affinity (pKI) is the negative logarithm of the equilibrium dissociation constants.

| SMILES | Ki [nM] |
| --- | --- |
| CC[C@H]1OC(=O)[C@H](C)[C@@H](O[C@H]2C[C@@](C)(OC)[C@@H](O)[C@H](C)O2)[C@H](C)[C@@H](O[C@@H]2O[C@H](C)C[C@H](N(C)Cc3ccc(-c4ccc(Cl)cc4)o3)[C@H]2O)[C@](C)(OC)C[C@@H](C)C(=O)[C@H](C)[C@H]2N(CCc3ccc(Cl)c(Cl)c3)C(=O)O[C@]12C [Example 67, 3'-N-Desmethyl-3'-N-[5-(4-chlorophenyl)-2-furylmethyl]-11-deoxy-11-[carboxy-(3,4-dichlorophenethylamino)]-6-O-methyl-erythromycin A 11,12-(cyclic carbamate)] | 7.76 |
| CC[C@H]1OC(=O)[C@H](C)[C@@H](O[C@H]2C[C@@](C)(OC)[C@@H](O)[C@H](C)O2)[C@H](C)[C@@H](O[C@@H]2O[C@H](C)C[C@H](N(C)Cc3ccc([N+](=O)[O-])o3)[C@H]2O)[C@](C)(OC)C[C@@H](C)C(=O)[C@H](C)[C@H]2N(CCc3ccc(Cl)c(Cl)c3)C(=O)O[C@]12C [Example 68, 3'-N-Desmethyl-3'-N-[5-nitro-2-furylmethyl]-11-deoxy-11-[carboxy-(3,4-dichlorophenethylamino)]-6-O-methyl-erythromycin A 11,12-(cyclic carbamate)] | 5.13 |
| CC[C@H]1OC(=O)[C@H](C)[C@@H](O[C@H]2C[C@@](C)(OC)[C@@H](O)[C@H](C)O2)[C@H](C)[C@@H](O[C@@H]2O[C@H](C)C[C@H](N(C)CC3CC(OC)OC3OC)[C@H]2O)[C@](C)(OC)C[C@@H](C)C(=O)[C@H](C)[C@H]2N(CCc3ccc(Cl)c(Cl)c3)C(=O)O[C@]12C (stereo partly drawn) [Example 69, 3'-N-Desmethyl-3'-N-[2,5-dimethoxy-3-tetrahydrofurylmethyl]-11-deoxy-11-[carboxy-(3,4-dichlorophenethylamino)]-6-O-methyl-erythromycin A 11,12-(cycliccarbamate)] | 6.17 |
| CC[C@H]1OC(=O)[C@H](C)[C@@H](O[C@H]2C[C@@](C)(OC)[C@@H](O)[C@H](C)O2)[C@H](C)[C@@H](O[C@@H]2O[C@H](C)C[C@H](N(C)Cc3cccc(C)n3)[C@H]2O)[C@](C)(OC)C[C@@H](C)C(=O)[C@H](C)[C@H]2N(CCc3ccc(Cl)c(Cl)c3)C(=O)O[C@]12C [Example 70, 3'-N-Desmethyl-3'-N-[6-methyl-2-pyridylmethyl]-11-deoxy-11-[carboxy-(3,4-dichlorophenethylamino)]-6-O-methyl-erythromycin A 11,12-(cyclic carbamate)] | 5.89 |
| CC[C@H]1OC(=O)[C@H](C)[C@@H](O[C@H]2C[C@@](C)(OC)[C@@H](O)[C@H](C)O2)[C@H](C)[C@@H](O[C@@H]2O[C@H](C)C[C@H](N(C)CCCC(F)(F)F)[C@H]2O)[C@](C)(OC)C[C@@H](C)C(=O)[C@H](C)[C@H]2N(CCc3ccc(Cl)c(Cl)c3)C(=O)O[C@]12C [Example 71, 3'-N-Desmethyl-3'-N-(4,4,4-trifluorobutyl)-11-deoxy-11-[carboxy-(3,4-dichlorophenethylamino)]-6-O-methyl-erythromycin A 11,12-(cyclic carbamate)] | 6.17 |
| CC[C@H]1OC(=O)[C@H](C)[C@@H](O[C@H]2C[C@@](C)(OC)[C@@H](O)[C@H](C)O2)[C@H](C)[C@@H](O[C@@H]2O[C@H](C)C[C@H](N(C)Cc3ccc4ccccc4c3Br)[C@H]2O)[C@](C)(OC)C[C@@H](C)C(=O)[C@H](C)[C@H]2N(CCc3ccc(Cl)c(Cl)c3)C(=O)O[C@]12C [Example 72, 3'-N-Desmethyl-3'-N-(1-bromo-2-napthylmethyl)-11-deoxy-11-[carboxy-(3,4-dichlorophenethylamino)]-6-O-methyl-erythromycin A 11,12-(cyclic carbamate)] | 0.676 |
| CC[C@H]1OC(=O)[C@H](C)[C@@H](O[C@H]2C[C@@](C)(OC)[C@@H](O)[C@H](C)O2)[C@H](C)[C@@H](O[C@@H]2O[C@H](C)C[C@H](N(C)Cc3ccc(C)c4ccccc34)[C@H]2O)[C@](C)(OC)C[C@@H](C)C(=O)[C@H](C)[C@H]2N(CCc3ccc(Cl)c(Cl)c3)C(=O)O[C@]12C [Example 73, 3'-N-Desmethyl-3'-N-(4-methyl-1-napthylmethyl)-11-deoxy-11-[carboxy-(3,4-dichlorophenethylamino)]-6-O-methyl-erythromycin A 11,12-(cyclic carbamate)] | 0.214 |
| CC[C@H]1OC(=O)[C@H](C)[C@@H](O[C@H]2C[C@@](C)(OC)[C@@H](O)[C@H](C)O2)[C@H](C)[C@@H](O[C@@H]2O[C@H](C)C[C@H](N(C)Cc3ccc(N(C)C)c4ccccc34)[C@H]2O)[C@](C)(OC)C[C@@H](C)C(=O)[C@H](C)[C@H]2N(CCc3ccc(Cl)c(Cl)c3)C(=O)O[C@]12C [Example 74, 3'-N-Desmethyl-3'-N-(4-dimethylamino-1-napthylmethyl)-11-deoxy-11-[carboxy-(3,4-dichlorophenethylamino)]-6-O-methyl-erythromycin A 11,12-(cyclic carbamate)] | 3.16 |
| CC[C@H]1OC(=O)[C@H](C)[C@@H](O[C@H]2C[C@@](C)(OC)[C@@H](O)[C@H](C)O2)[C@H](C)[C@@H](O[C@@H]2O[C@H](C)C[C@H](N(C)Cc3ccco3)[C@H]2O)[C@](C)(OC)C[C@@H](C)C(=O)[C@H](C)[C@H]2N(CCc3ccc(Cl)c(Cl)c3)C(=O)O[C@]12C [Example 75, 3'-N-Desmethyl-3'-N-(2-furylmethyl)-11-deoxy-11-[carboxy-(3,4-dichlorophenethylamino)]-6-O-methyl-erythromycin A 11,12-(cyclic carbamate)] | 1.26 |
| CC[C@H]1OC(=O)[C@H](C)[C@@H](O[C@H]2C[C@@](C)(OC)[C@@H](O)[C@H](C)O2)[C@H](C)[C@@H](O[C@@H]2O[C@H](C)C[C@H](N(C)CCCc3ccncc3)[C@H]2O)[C@](C)(OC)C[C@@H](C)C(=O)[C@H](C)[C@H]2N(CCc3ccc(Cl)c(Cl)c3)C(=O)O[C@]12C [Example 76, 3'-N-Desmethyl-3'-N-[3-(4-pyridyl)propyl]-11-deoxy-11-[carboxy-(3,4-dichlorophenethylamino)]-6-O-methyl-erythromycin A 11,12-(cyclic carbamate)] | 9.12 |
| CC[C@H]1OC(=O)[C@H](C)[C@@H](O[C@H]2C[C@@](C)(OC)[C@@H](O)[C@H](C)O2)[C@H](C)[C@@H](O[C@@H]2O[C@H](C)C[C@H](N(C)CCCc3ccccn3)[C@H]2O)[C@](C)(OC)C[C@@H](C)C(=O)[C@H](C)[C@H]2N(CCc3ccc(Cl)c(Cl)c3)C(=O)O[C@]12C [Example 77, 3'-N-Desmethyl-3'-N-[3-(2-pyridyl)propyl]-11-deoxy-11-[carboxy-(3,4-dichlorophenethylamino)]-6-O-methyl-erythromycin A 11,12-(cyclic carbamate)] | 6.17 |
| CC[C@H]1OC(=O)[C@H](C)[C@@H](O[C@H]2C[C@@](C)(OC)[C@@H](O)[C@H](C)O2)[C@H](C)[C@@H](O[C@@H]2O[C@H](C)C[C@H](N(C)CCCCc3ccncc3)[C@H]2O)[C@](C)(OC)C[C@@H](C)C(=O)[C@H](C)[C@H]2N(CCc3ccc(Cl)c(Cl)c3)C(=O)O[C@]12C [Example 78, 3'-N-Desmethyl-3'-N-[4-(4-pyridyl)butyl]-11-deoxy-11-[carboxy-(3,4-dichlorophenethylamino)]-6-O-methyl-erythromycin A 11,12-(cyclic carbamate)] | 7.94 |
